Results as given in patent US20240300980A1, “HETEROCYCLIC COMPOUNDS AS KRAS INHIBITOR, AND PREPARATION THEREFOR AND USE THEREOF IN TREATMENT” (SHANGHAI KECHOW PHARMA, INC., priority 2021, published 2024).

The compounds below were run on AGS cells (KRAS^G12D) (assay: Detection of cell proliferation in vitro by MTT/MTS method (cell activity experiment)). Details: AGS cells; MTT/MTS; 3 days of drug treatment; read-out: AGS IC50.
Assay type: cell-based
Method in brief: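 KRAS G12D AGS cells seeded at 1000 per well, compound added 24 h later, 0.5% final DMSO. Viability read after 3 days of treatment by MTT (solubilised in DMSO) or MTS, 4 h, absorbance 490 nm. IC50 from dose–response curves versus DMSO control.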

Row | SMILES | IC50 [nM]
1 | C#Cc1c(F)ccc2cc(O)cc(-c3ccc4c(N5CCC(N)C5)nc(OC[C@@]56CCCN5C[C@H](F)C6)nc4c3F)c12 (stereo partly drawn) [Example 116, 4-(4-(3-aminopyrrolidin-1-yl)-8-fluoro-2-(((2R, 7aS)-2-fluorotetrahydro-1H-pyrrolizin-7a(5H)-yl)methoxy)quinazolin-7-yl)-5-ethynyl-6-fluoronaphthalen-2-ol] | > 2500
2 | CSc1c(F)ccc2cc(O)cc(-c3ccc4c(N5C[C@H]6CC[C@@H](C5)N6)nc(OC[C@@]56CCCN5C[C@H](F)C6)nc4c3F)c12 [Example 336, 4-(4-((1R,5S)-3,8-diazabicyclo[3.2.1]octan-3-yl)-8-fluoro-2-(((2R,7aS)-2-fluorotetrahvdro-1H-pyrrolizin-7a(5H)-yl)methoxy)quinazolin-7-yl)-6-fluoro-5-(methylthio)naphthalen-2-ol] | 9.9
3 | CC1CCCc2cc(O)cc(-c3ccc4c(N5C[C@H]6CC[C@@H](C5)N6)nc(OC[C@@]56CCCN5C[C@H](F)C6)nc4c3F)c21 (single isomer, unassigned) [Example 288] | 7.2
4 | C#Cc1c(F)ccc2cc(O)cc(-c3ccc4c(N5C[C@H]6CC[C@@H](C5)N6)c(F)c(OC[C@@]56CCCN5C[C@H](F)C6)nc4c3F)c12 [Example 335, 4-(4-((1R,5S)-3,8-diazabicyclo[3.2.1]octan-3-yl)-3,8-difluoro-2-(((2R,7aS)-2-fluorotetrahydro-1H-pyrrolizin-7a(5H)-yl)methoxy)quinolin-7-yl)-5-ethynyl-6-fluoronanhthalen-2-ol] | 20.7

Same assay, conditions: Homo sapiens, AGS, 72 h, AGS cells; MTT/MTS; 3 days of drug treatment; read-out: AGS IC50

Row | SMILES | IC50 [nM]
5 | CC1CCc2cc(O)cc(-c3cc4nc(OC[C@@]56CCCN5C[C@H](F)C6)nc(N5C[C@H]6CC[C@@H](C5)N6)c4c4occc34)c21 (stereo partly drawn) [Example 385, 7-(9-((1R,5S)-3,8-diazabicyclo[3.2.1]octan-3-yl)-7-(((2R,7aS)-2-fluorotetrahydro-1H-pyrrolizin-7a(5H)-yl)methoxy)furo[2,3-f]quinazolin-4-yl)-1-methyl-2,3-dihydro-1H-inden-5-ol] | 459
6 | C#Cc1c(F)ccc2cc(O)cc(-c3ncc4c(N5C[C@H]6CC[C@@H](C5)N6)nc(OC[C@@]56CCCN5C[C@H](F)C6)nc4c3OCC(F)(F)F)c12 [Example 333, 4-(4-((1R,5S)-3,8-diazabicyclo[3.2.1]octan-3-yl)-2-(((2R,7aS)-2-fluorotetrahydro-1H-pyrrolizin-7a(5H)-yl)methoxy)-8-(2,2,2-trifluoroethoxy)pyrido[4,3-d]pyrimidin-7-yl)-5-ethynyl-6-fluoronaphthalen-2-ol] | 455
7 | C#Cc1c(F)ccc2cc(O)cc(-c3ncc4c(N5CC6CCC(C5)[S+]6[O-])nc(OC[C@@]56CCCN5C[C@H](F)C6)nc4c3F)c12 (stereo partly drawn) [Example 22, (1R,5S,8R)-3-(7-(8-ethynyl-7-fluoro-3-hydroxynaphthalen-1-yl)-8-fluoro-2-(((2R,7aS)-2-fluorotetrahydro-1H-pyrrolizin-7a(5H)-yl)methoxy)pyrido [4,3-d]pyrimidin-4-yl)-8-thia-3-azabicyclo [3.2.1]octane 8-oxide] | 3950
8 | CC1(C)CCCc2cc(O)cc(-c3ncc4c(N5C[C@H]6CC[C@@H](C5)N6)nc(OC[C@@]56CCCN5C[C@H](F)C6)nc4c3F)c21 [Example 254, 4-(4-((1R,5S)-3,8-diazabicyclo[3.2.1]octan-3-yl)-8-fluoro-2-(((2R,7aS)-2-fluorotetrahydro-1H-pyrrolizin-7a(5H)-yl)methoxy)pyrido[4,3-d]pyrimidin-7-yl)-5,5-dimethyl-5,6,7,8-tetrahydronaphthalen-2-ol] | 462
9 | C#Cc1c(F)ccc2cc(O)cc(-c3ccc4c(N5CC(C#N)C5)nc(OC[C@@]56CCCN5C[C@H](F)C6)nc4c3F)c12 [Example 134, 1-(7-(8-ethynyl-7-fluoro-3-hydroxynaphthalen-1-yl)-8-fluoro-2-(((2R, 7aS)-2-fluorotetrahydro-1H-pyrrolizin-7a(5H)-yl)methoxy)quinazolin-4-yl)azetidine-3-carbonitrile] | 586
10 | C#Cc1c(F)ccc2cc(O)cc(-c3ncc4c(N5CC6CCC(C5)C6[S+](C)[O-])nc(OC[C@@]56CCCN5C[C@H](F)C6)nc4c3F)c12 (stereo partly drawn) [Example 65, 5-ethynyl-6-fluoro-4-(8-fluoro-2-(((2R,7aS)-2-fluorotetrahydro-1H-pyrrolizin-7a(5H)-yl)methoxy)-4-((1R,5S, 8R)-8-(methylsulfinyl)-3-azabicyclo[3.2.1]octan-3-yl)pyrido[4,3-d]pyrimidin-7-yl) naphthalen-2-ol] | > 10000
11 | CCC1CCc2cc(O)cc(-c3c4c(c5c(N6C[C@H]7CC[C@@H](C6)N7)nc(OC[C@@]67CCCN6C[C@H](F)C7)nc5c3F)CCC4)c21 (stereo partly drawn) [Example 381, 7-(1-((1R,5S)-3,8-diazabicyclo[3.2.1]octan-3-yl)-5-fluoro-3-(((2R,7aS)-2-fluorotetrahydro-1H-pyrrolizin-7a(5H)-yl)methoxy)-8,9-dihydro-7H-cyclopenta[f]quinazolin-6-yl)-1-ethyl-2,3-dihydro-1H-inden-5-ol] | 75
12 | CCC1CCCc2cc(O)cc(-c3ncc4c(NCC5(N(C)C)CCC5)nc(OC[C@@]56CCCN5C[C@H](F)C6)nc4c3F)c21 (stereo partly drawn) [Example 422, 4-(4-(((1-(dimethylamino)cyclobutyl)methyl)amino)-8-fluoro-2-(((2R,7aS)-2-fluorotetrahydro-1H-pyrrolizin-7a(5H)-yl)methoxy)pyrido[4,3-d]pyrimidin-7-yl)-5-ethyl-5,6,7,8-tetrahydronaphthalen-2-ol] | 35
13 | C#Cc1cccc2cc(O)cc(-c3ncc4c(N5CC6CCCNC6C5)nc(OC[C@@]56CCCN5C[C@H](F)C6)nc4c3F)c12 (stereo partly drawn) [Example 53, 5-ethynyl-4-(8-fluoro-2-(((2R,7aS)-2-fluorotetrahydro-1H-pyrrolizin-7a(5H)-yl)methoxy)-4-(octahydro-6H-pyrrolo[3,4-b]pyridin-6-yl)pyrido[4,3-d]pyrimidin-7-yl)naphthalen-2-ol] | > 2500
14 | C[C@H]1CCCc2cc(O)cc(-c3ncc4c(N5CC6CCC(C5)N6)nc(OC[C@@]56CCCN5C[C@H](F)C6)nc4c3F)c21 (single isomer, unassigned) [Example 226, (S)-4-(4-((1R,5S)-3,8-diazabicyclo[3.2.1]octan-3-yl)-8-fluoro-2-(((2R,7aS)-2-fluorotetrahydro-1H-pyrrolizin-7a(5H)-yl)methoxy)pyrido[4,3-d]pyrimidin-7-yl)-5-methyl-5,6,7,8-tetrahydronaphthalen-2-ol or (R)-4-(4-((1R,5S)-3,8-diazabicyclo[3.2.1]octan-3-yl)-8-fluoro-2-(((2R,7aS)-2-fluorotetrahydro-1H-pyrrolizin-7a(5H)-yl)methoxy)pyrido[4,3-d]pyrimidin-7-yl)-5-methyl-5,6,7,8-tetrahydronaphthalen-2-ol] | 2.4
15 | CCC1CCc2cc(O)cc(-c3c(F)c4nc(OC[C@@]56CCCN5C[C@H](F)C6)nc(N5C[C@H]6CC[C@@H](C5)N6)c4c4nccn34)c21 (stereo partly drawn) [Example 415, 7-(10-((1R,5S)-3,8-diazabicyclo[3.2.1]octan-3-yl)-6-fluoro-8-(((2R,7aS)-2-fluorotetrahydro-1H-pyrrolizin-7a(5H)-yl)methoxy)imidazo[1′,2′:1,2]pyrido[4,3-d]pyrimidin-5-yl)-1-ethyl-2,3-dihydro-1H-inden-5-ol] | 60
16 | C#Cc1c(F)ccc2cc(O)cc(-c3c(F)c4nc(OC[C@@]56CCCN5C[C@H](F)C6)nc(N5C[C@H]6CC[C@@H](C5)N6)c4c4cncn34)c12 [Example 398, 4-(1-((1R,5S)-3,8-diazabicyclo[3.2.1]octan-3-yl)-5-fluoro-3-(((2R,7aS)-2-fluorotetrahydro-1H-pyrrolizin-7a(5H)-yl)methoxy)imidazo[1′,5′:1,2]pyrido[4,3-d]pyrimidin-6-yl)-5-ethynyl-6-fluoronaphthalen-2-ol] | 50
17 | C#Cc1c(F)ccc2cc(O)cc(-c3ccc4c(N5C[C@H]6CC[C@@H](C5)N6)c(C#N)c(OC[C@@]56CCCN5C[C@H](F)C6)nc4c3F)c12 [Example 177, 4-((1R,5S)-3,8-diazabicyclo[3.2.1]octan-3-yl)-7-(8-ethynyl-7-fluoro-3-hydroxynaphthalen-1-yl)-8-fluoro-2-(((2R,7aS)-2-fluorotetrahydro-1H-pyrrolizin-7a(5H)-yl)methoxy)quinoline-3-carbonitrile] | 530
18 | CC1CCCc2cc(O)cc(-c3c4c(c5c(N6C[C@H]7CC[C@@H](C6)N7)nc(OC[C@@]67CCCN6C[C@H](F)C7)nc5c3F)OCO4)c21 (stereo partly drawn) [Example 391, 4-(9-((1R,5S)-3,8-diazabicyclo[3.2.1]octan-3-yl)-5-fluoro-7-(((2R,7aS)-2-fluorotetrahydro-1H-pyrrolizin-7a(5H)-yl)methoxy)-[1,3]dioxolo[4,5-f]quinazolin-4-yl)-5-methyl-5,6,7,8-tetrahydronaphthalen-2-ol] | 100
19 | C#Cc1c(F)ccc2cc(O)cc(-c3ccc4c(N5CC6CC(C5)N6)nc(OC[C@@]56CCCN5C[C@H](F)C6)nc4c3F)c12 [Example 107, 4-(4-(3,6-diazabicyclo [3.1.1]heptan-3-yl)-8-fluoro-2-(((2R,7aS)-2-fluorotetrahydro-1H-pyrrolizin-7a(5H)-yl)methoxy)quinazolin-7-yl)-5-ethynyl-6-fluoronaphthalen-2-ol] | 105
20 | C#Cc1c(F)ccc2cc(O)cc(-c3c(F)c4nc(OC[C@@]56CCCN5C[C@H](F)C6)nc(N5C[C@H]6CC[C@@H](C5)N6)c4c4nccn34)c12 [Example 399, 4-(10-((1R,5S)-3,8-diazabicyclo[3.2.1]octan-3-yl)-6-fluoro-8-(((2R,7aS)-2-fluorotetrahydro-1H-pyrrolizin-7a(5H)-yl)methoxy)imidazo[1′,2′:1,2]pyrido[4,3-d]pyrimidin-5-yl)-5-ethynyl-6-fluoronaphthalen-2-ol] | 65
21 | C#Cc1cccc2cc(O)cc(N3CCc4c(nc(OC[C@@]56CCCN5C[C@H](F)C6)nc4N4C[C@H]5CC[C@@H](C4)N5)C3)c12 [Example 206, 4-(4-((1R,5S)-3,8-diazabicyclo[3.2.1]octan-3-yl)-2-(((2R,7aS)-2-fluorotetrahydro-1H-pyrrolizin-7a(5H)-yl)methoxy)-5,8-dihydropyrido[3,4-d]pyrimidin-7(6H)-yl)-5-ethynylnaphthalen-2-ol] | 20
